{"source": "patent US9637529B2", "about": "“Medicament for atrophy treatment or increasing cell growth” (SIMU TRADE CONSULTING GMBH & CO. LEASING KG, priority 2012, dated 2017)", "key": {"[1]": {"system": "mouse satellite cells (MuMa23/P13)", "test": "AlamarBlue proliferation assay, primary satellite cells", "format": "cell-based", "settings": "24 hrs, SERF2 20 and 4 μg/ml", "procedure": "FIG. 4: Effect of SERF2 on Proliferation of mouse satellite cells (MuMa23/P13). Proliferation assay was performed essentially as in FIG. 2. Incubation time was 24 hrs, added SERF2 concentrations were 20 and 4 μg/ml, respectively.\nMuscle tissue was taken from male ICR mice and minced by using scissors and a scalpel. Following incubation in protease solution (Sigma, St. Lois) for 1 h at 37° C., remaining tissue clumps were dissociated by vigorousely pipetting and loaded onto a Percoll (Pharmacia) gradient (75%, 50%, 30%). After centrifugation for 20 min at 1250×g, cells were collected from the 2nd interphase (99% satellite cells), washed and cultured at a cell density of 1×10^5 cells/ml in 6-well plates. See also Danoviz ewt al. Methods Mol Biol. 2012; 798: 21-52.\nProliferation was measured using the AlamarBlue™ assay according to the manufacturer's protocol. Briefly, 1×10^4 cells were seeded per well containing 100 μl growth medium. Cells were incubated over night at +37° C., 5% v/v CO^2 and humidified atmosphere. Prior performing the assay, viability of cells was checked under the microscope. Usually cells reached 60% confluence. Cells were washed three times with 100 μl DPBS per well. […] Fluorescence (Ex. 570 nm, Em. 585 nm) was measured using a Varioskan Flash multi-plate reader (Thermo Scientific). Data were evaluated using Microsoft Excel and GraphPad Prism V4."}, "[2]": {"system": "rat cardiomyocytes (H9c2)", "test": "AlamarBlue proliferation assay, H9c2 cells", "format": "cell-based", "procedure": "FIG. 3: Effect of SERF2 on Proliferation of H9c2 cells is dose-dependent. Proliferation assay was performed essentially as in FIG. 2. Incubation time was 24 hrs, added SERF2 concentrations ranged from 20 to 1.25 μg/ml.\n(§1) FIG. 5: Kinetics of the Effect of SERF2 on Proliferation of rat cardiomyocytes (H9c2). Cells stimulated with SERF2 (green line) responded with proliferation and reached max. proliferation rate after 6 days. Proliferation assay was performed essentially as in FIG. 2. Incubation times were 24, 48, 72 and 144 hrs, the SERF2 concentration added was 5 μg/ml.\nRat derived embryonic cardiomyocytes H9c2 (ATTC CRL-1446) and embryonic skeletal muscle cells L6 (ATTC CRL-1458) were cultured in Dulbecco's Modified Eagle Medium high glucose (DMEM, Sigma Aldrich) containing 10% v/v fetal calf serum (FCS, PAA) and 1% v/v Penicillin/Streptamycin (Gibco). Cells were grown in 80 cm2 cell culture flasks (NUNC) using 15 ml growth medium. Both cell lines were incubated under humidified atmosphere at +37° C. and 5% v/v CO^2. Cells were splitted when a confluency of approximately 90% was reached. Usually a splitting ratio of 1:5 or 1:10 was applied. For this purpose, supernatant was removed and cells were washed using 10 ml Dulbecco's Phosphate Buffered Saline (DPBS, Gibco). Cells were harvested by addition of 3 ml Trypsin/EDTA (Gibco) followed by an incubation of 5 to 10 min at +37° C. Successful detachment of cells was checked under the microscope (IMT-2, Olympus) and 7 ml growth medium were added. Cell number and viability were determined by trypanblue exclusion performed by using an automated cell analyzer (CEDEX, Innovatis). For this, 950 μl DPBS and 50 μl cell-suspension were mixed and used for analysis.\nProliferation was measured using the AlamarBlue™ assay according to the manufacturer's protocol. Briefly, 1×10^4 cells were seeded per well containing 100 μl growth medium. […] Fluorescence (Ex. 570 nm, Em. 585 nm) was measured using a Varioskan Flash multi-plate reader (Thermo Scientific). Data were evaluated using Microsoft Excel and GraphPad Prism V4."}, "[3]": {"system": "rat skeletal muscle cells (L6)", "test": "AlamarBlue proliferation assay, L6 cells", "format": "cell-based", "procedure": "FIG. 2: Effect of SERF2 on Proliferation of rat skeletal muscle cells (L6). 1×10^4 L6 cells were seeded per well containing 100 μl growth medium. Cells were incubated over night at +37° C., 5% v/v CO^2 and humidified atmosphere. Prior performing the assay, viability of cells was checked under the microscope. Cells were washed three times with 100 μl DPBS per well. SERF2 was diluted […]) in DMEM and 100 μl/well were added to the cells. Finally, cells were incubated at +37° C. for various time points. Subsequently 10 μl/well AlamarBlue™ reagent (Invitrogen) was added. Plates were incubated for one hour at +37° C. Fluorescence (Ex. 570 nm, Em. 585 nm) was measured using a Varioskan Flash multi-plate reader (Thermo Scientific). Obtained Data were evaluated using Microsoft Excel and Graph Pad Prism V4.\nas §1, with “6:” for “5:”, “skeletal muscle cells (L6).” for “cardiomyocytes (H9c2).”, “reached a” for “reached”\nRat derived embryonic cardiomyocytes H9c2 (ATTC CRL-1446) and embryonic skeletal muscle cells L6 (ATTC CRL-1458) were cultured in Dulbecco's Modified Eagle Medium high glucose (DMEM, Sigma Aldrich) containing 10% v/v fetal calf serum (FCS, PAA) and 1% v/v Penicillin/Streptamycin (Gibco). Cells were grown in 80 cm2 cell culture flasks (NUNC) using 15 ml growth medium. Both cell lines were incubated under humidified atmosphere at +37° C. and 5% v/v CO^2. Cells were splitted when a confluency of approximately 90% was reached. […] Cell number and viability were determined by trypanblue exclusion performed by using an automated cell analyzer (CEDEX, Innovatis). […]\nProliferation was measured using the AlamarBlue™ assay according to the manufacturer's protocol. […] Fluorescence (Ex. 570 nm, Em. 585 nm) was measured using a Varioskan Flash multi-plate reader (Thermo Scientific). Data were evaluated using Microsoft Excel and GraphPad Prism V4."}, "[4]": {"system": "zebrafish", "test": "Zebrafish TUNEL in situ staining of apoptotic cells", "format": "in vivo", "settings": "gill, skeletal muscle and tail sections, versus untreated animals", "procedure": "FIG. 18: Apoptotic cells detected by TUNEL technology in gill, skeletal muscle and tail sections.\nSERF2 was administered by a) injection of the native protein into the yolk sac of 3 day post fertilization (dpf) animals and freshly fertilized eggs (2-8 cell stage) in various protein concentrations or chronic incubation with the native protein to supply it via diffusion. For in deep analysis of angiogenic effects flk-1 transgenic animals with gfp (green fluorescent protein) labelled endothelium were used. For all other experiments wildtype (wdt) animals were used.\nApoptotic. cells were detected by TUNEL technology using in situ Cell Death Detection Kit, Fluorescein (Roche Applied Science, Mannheim, Germany) according to the manufacturer's instructions. Statistical Analysis. The acquired data statistically analyzed by using a two tailed students t-Test (Microsoft Excel) and significance was accepted when P<0.05. Data are presented as mean±S.E.M."}, "[5]": {"settings": "SERF2 5 μg/ml, incubation 24, 48, 72 and 144 hrs"}}, "note": "Entries after “also recorded” stand apart in the source; their conditions may differ."}
{"substance": "SERF2: Small EDRK-rich factor 2, mature protein of 59 amino acids (SEQ ID NO: 1) (MTRGNQRELARQKNMKKQSDSVKGKRRDDGLSAAARKQRDSEIMQQKQKKANEKKEEPK; homo sapiens)", "values": [{"measurement": "proliferative effect on mouse satellite cells", "setting": "[1]", "result": "proliferative effect in a dose-dependent manner"}, {"measurement": "proliferative effect on H9c2 cells", "setting": "[2]; 24 h treatment, SERF2 20 to 1.25 μg/ml", "result": "proliferative effect in a dose-dependent manner"}, {"measurement": "SERF2 concentration at which proliferative effect peaks, H9c2", "setting": "[2]; AlamarBlue", "result": 5, "unit": "µg/mL"}, {"measurement": "time to max. proliferation rate, H9c2", "setting": "[2]; [5]", "result": 6, "unit": "days"}, {"measurement": "proliferative effect on L6 rat skeletal muscle cells", "setting": "[3]; AlamarBlue, single treatment, read daily until day six", "result": "proliferative effect on L6 rat skeletal muscle cells in a dose- and time-dependent manner"}, {"measurement": "time to max. proliferation rate, L6", "setting": "[3]; [5]", "result": 6, "unit": "days"}, {"measurement": "time of maximum proliferative effect, L6", "setting": "[3]; incubation time", "result": "three to six"}, {"measurement": "number of apoptotic cells (TUNEL)", "setting": "[4]", "result": "reduced number of apoptotic cells; also recorded: lower in different regions as compared to untreated animals"}]}
